Measured values published in article PMC3003779 (Chemistry & biology, 2010).
Where two headings read alike, the source gives them in different places.

Tests used:
[1] = tested on: brain anandamide and 2-AG levels; experiment: brain endocannabinoid levels by LC/MS; conditions: SHR and WKY, bolus i.p. doses, 1 h
[2] = tested on: SHR; experiment: mean arterial pressure and heart rate in chronically cannulated conscious SHR; type: in vivo, rat; conditions: 0.5 mg/kg i.v.
[3] = molecular target: T1, FAAH (Rattus norvegicus, UniProt P97612); type: in vivo; conditions: for ID50, inhibition of brain FAAH activity: i.p., 1 h; for reduction of hepatic FAAH activity: 1 mg/kg i.p.
T1 sequence (P97612 1-579): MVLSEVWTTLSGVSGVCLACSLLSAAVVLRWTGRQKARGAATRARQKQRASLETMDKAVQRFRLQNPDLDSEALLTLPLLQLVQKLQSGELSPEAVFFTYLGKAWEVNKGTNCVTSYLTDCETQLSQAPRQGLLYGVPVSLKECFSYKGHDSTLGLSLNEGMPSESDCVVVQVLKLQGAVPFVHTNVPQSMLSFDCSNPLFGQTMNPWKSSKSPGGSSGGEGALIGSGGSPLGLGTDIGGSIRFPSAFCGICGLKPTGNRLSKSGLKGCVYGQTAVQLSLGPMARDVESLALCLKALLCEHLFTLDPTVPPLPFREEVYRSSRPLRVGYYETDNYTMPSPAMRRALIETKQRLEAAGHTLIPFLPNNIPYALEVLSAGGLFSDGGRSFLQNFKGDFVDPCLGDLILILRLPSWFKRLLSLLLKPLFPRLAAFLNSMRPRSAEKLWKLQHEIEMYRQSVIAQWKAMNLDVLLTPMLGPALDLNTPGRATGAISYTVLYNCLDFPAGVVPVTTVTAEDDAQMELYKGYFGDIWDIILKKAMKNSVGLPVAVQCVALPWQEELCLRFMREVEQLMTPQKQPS

## O=S(=O)(F)CCCCCc1ccc(O)cc1 [AM3506, 5-(4-hydroxyphenyl)pentanesulfonyl fluoride]
[1]
  brain 2-AG levels: remained unaffected
  brain anandamide levels: parallel increases
[2]; awake SHR, n = 5
  duration of MAP and HR effects: up to 60 minutes
[2]; conscious SHR, from 176 ±4, n=4
  MAP after treatment: 127±5 mmHg
[2]; conscious SHR, from 355±6, n=4
  HR after treatment: 286±22 bpm
[2]; conscious SHR, n=4
  duration of MAP and HR effects: up to an hour
[3]; SHR brain
  ID50, inhibition of brain FAAH activity: ~0.1 mg/kg
[3]; SHR liver
  reduction of hepatic FAAH activity: 11.1±0.4%
[3]; WKY brain
  ID50, inhibition of brain FAAH activity: ~0.1 mg/kg
[3]; WKY liver
  reduction of hepatic FAAH activity: 6.7±0.2%
